In brackets after ≈: the same amount, converted by molar mass.
How the values were obtained:
Salmonella strain 14028s = assay: Minimum inhibitory concentration in EG minimal media; type: cell-based, Salmonella Typhimurium; conditions: 18 h; for Growth in EG at concentration tested 1 μg/ml / Growth in EG at concentration tested 2 μg/ml / Growth in EG at concentration tested 4 μg/ml / Growth in EG at concentration tested 8 μg/ml / Growth in EG at concentration tested 16 μg/ml / Growth in EG at concentration tested 32 μg/ml: EG minimal media, 37° C.; for MIC: Salmonella, 14028S
Method: DksA controls transcription of metabolic and virulence genes, allowing bacteria to both grow in minimum media and cause disease. Inhibition of bacterial growth in EG minimum media was used as an easy and reliable proxy of the DksA-dependent regulation of metabolism.
In a non-limiting example, wild-type Salmonella strain 14028s was grown overnight (18.5 h), and then diluted in EG minimal media to a density of about 10^5 CFU/mL. […] Each test tube was incubated at 37° C. with shaking for 18 h and bacterial growth was evaluated. The MIC value was determined as the lowest concentration of compound that inhibited growth.

DksA [1] = molecular target: T1, DksA (Salmonella typhimurium, UniProt P0A1G5); assay: DksA-dependent livJ in vitro transcription; type: biochemical; conditions: livJ promoter; for IVT: concentration showing activity
T1 sequence (P0A1G5 whole entry): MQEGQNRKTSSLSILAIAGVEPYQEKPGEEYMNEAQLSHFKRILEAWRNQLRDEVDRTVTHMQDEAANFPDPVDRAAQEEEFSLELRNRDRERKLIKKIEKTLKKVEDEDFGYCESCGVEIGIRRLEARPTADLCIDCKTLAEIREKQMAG
Method: (§1) To measure the potency of a compound in inhibition of DksA biological function, rpsMtranscripts in vitro was determined by non-radioactive in vitro transcription reactions with qPCR analysis with divergent compounds. Briefly, 5 nM pTIM-rpsMplasmid was mixed with […] of compounds in 10 μl reaction buffer (40 mM HEPES [pH 7.4], 2 mM MgCl2, 60 mM potassium glutamate, 0.05% NP-40, 200 μM ATP, 200 μM GTP, 200 μM CTP, 200 μM UTP, and 5 nM E. coli RNA polymerase holoenzyme (NEB, Ipswich, MA) with 5 μM DksA. The in vitro transcription was carried out at 37° C. for 10 min, and then terminated at 70° C. for 10 min. To remove template DNA after treated with DNaseI, DNA-free DNA Removal kit (ThermoFisher) was used according to manufacturer's direction. The resulting materials were used as templates to generate cDNA with 100 U MMLV reverse transcriptase (Promega), 0.45 μM gene specific primer, and 20 U RNase inhibitor (Promega). The amount of cDNA synthesized for 1 h at 42° C. was quantified by real-time PCR (qRT-PCR). The copy number of specific transcripts was calculated to the standard curve generated with known gene copy concentrations. The IC50 is the concentration at which the curve passes through the 50% inhibition level. Standard deviation was calculated from 3 independent experiments.
(§2) The compounds were initially tested at 0.1 μM and 1 μM using as a target the promoter of the livJ gene that encodes a transporter of branch-chain amino acids (Table 4).

DksA [2] = molecular target: T1, DksA; assay: DksA-mediated repression of rpsM in vitro transcription (IVT, qRT-PCR); type: biochemical
Method: as §1
The compounds obtained in this screen were further analyzed for binding to the acidic pocket at the tip of DksA coiled-coil domain using the computer search program Dock. The analysis identified over 400 compounds. A panel of 40 compounds was selected from the top hits based on free energy binding scores. These compounds were investigated using the computer modeling program O. Two additional criteria were applied in order to narrow down the list of candidates: First, the compounds needed to fit deep into the pocket without any clashes; and second, the compounds bound to DksA should have minimal exposed moieties. The compounds selected were further refined according to energy minimization as calculated by the CNS program. 23 compounds were obtained from MolPort and they were tested for their ability to interfere with DksA in a high throughput screen that combined in vitro transcription with highly specific and quantitative qRT-PCR. Five of these compounds, including N-(3,4-dimethoxyphenyl)-1H-1,2,4-triazole-3-carboxamide (1), prevented DksA-mediated repression of rpsM in vitro transcription to some degree. […] Without intending to be limited to any particular theory, the effect that 1 has on DksA-dependent rpsM or hisG gene transcription is potentially due to differences in promoter activity.
as §2

Compound solubility = type: physicochemical; conditions: for Compound Solubility, 1 μM: solvent at 1 μM; for Compound Solubility, 10 μM: solvent at 10 μM; for Compound Solubility, 100 μM: solvent at 100 μM; for Compound Solubility, 1 mM: solvent at 1 mM; for Compound Solubility, 10 mM: solvent at 10 mM; for Compound Solubility, 16 mg/ml: solvent at 16 mg/ml

## CCCCNC(=O)c1nc[nH]n1 [Compound 12, N-butyl-1H-1,2,4-triazole-3-carboxamide]
Salmonella strain 14028s
  Growth in EG at concentration tested 1 μg/ml: +
  Growth in EG at concentration tested 2 μg/ml: +
  Growth in EG at concentration tested 4 μg/ml: +
  MIC: 8 µg/mL (≈ 47.6 µM)
DksA [1]
  In vitro transcription assay result, 0.1 μM: no induction
  In vitro transcription assay result, 1 μM: no induction
  IVT: 0.1 µM
DksA [2]
  IC50: 73 nM
Compound solubility
  Compound Solubility, 1 μM: water
  Compound Solubility, 10 μM: water
  Compound Solubility, 100 μM: water
  Compound Solubility, 1 mM: water
  Compound Solubility, 10 mM: water
  Compound Solubility, 16 mg/ml: DMSO

## O=C(Nc1cc(Cl)cc(Cl)c1)c1nc[nH]n1 [Compound 14, N-(3,5-dichlorophenyl)-1H-1,2,4-triazole-3-carboxamide]
Salmonella strain 14028s
  Growth in EG at concentration tested 1 μg/ml: +
  Growth in EG at concentration tested 2 μg/ml: +
  Growth in EG at concentration tested 4 μg/ml: +
  MIC: 8 µg/mL (≈ 31.1 µM)
DksA [1]
  In vitro transcription assay result, 0.1 μM: no induction
  In vitro transcription assay result, 1 μM: no induction
  IVT: 0.1 µM
DksA [2]
  IC50: 71 nM
Compound solubility
  Compound Solubility, 1 μM: water
  Compound Solubility, 10 μM: water
  Compound Solubility, 100 μM: water
  Compound Solubility, 1 mM: DMSO
  Compound Solubility, 10 mM: DMSO
  Compound Solubility, 16 mg/ml: DMSO

## O=C(NCCCc1ccccc1)c1nc[nH]n1 [Compound 15, N-(3-phenylpropyl)-1H-1,2,4-triazole-3-carboxamide]
Salmonella strain 14028s
  Growth in EG at concentration tested 1 μg/ml: +
  Growth in EG at concentration tested 2 μg/ml: +
  Growth in EG at concentration tested 4 μg/ml: +
  Growth in EG at concentration tested 8 μg/ml: +
  MIC: 16 µg/mL (≈ 69.5 µM)
DksA [1]
  In vitro transcription assay result, 0.1 μM: no induction
  In vitro transcription assay result, 1 μM: no induction
  IVT: 0.1 µM
DksA [2]
  IC50: 51 nM
Compound solubility
  Compound Solubility, 1 μM: water
  Compound Solubility, 10 μM: water
  Compound Solubility, 100 μM: water
  Compound Solubility, 1 mM: water
  Compound Solubility, 10 mM: water
  Compound Solubility, 16 mg/ml: DMSO

## O=C(NCCCCc1ccccc1)c1nc[nH]n1 [Compound 16, N-(4-phenylbutyl)-1H-1,2,4-triazole-3-carboxamide]
Salmonella strain 14028s
  Growth in EG at concentration tested 1 μg/ml: +
  Growth in EG at concentration tested 2 μg/ml: +
  Growth in EG at concentration tested 4 μg/ml: +
  MIC: 16 µg/mL (≈ 65.5 µM)
DksA [1]
  In vitro transcription assay result, 0.1 μM: no induction
  In vitro transcription assay result, 1 μM: good repression
  IVT: 0.1 µM
DksA [2]
  IC50: 91 nM
Compound solubility
  Compound Solubility, 1 μM: water
  Compound Solubility, 10 μM: water
  Compound Solubility, 100 μM: water
  Compound Solubility, 1 mM: water
  Compound Solubility, 10 mM: DMSO
  Compound Solubility, 16 mg/ml: DMSO

## C[C@@H](NC(=O)c1nc[nH]n1)c1ccccc1 [Compound 17, (R)-N-(1-phenylethyl)-1H-1,2,4-triazole-3-carboxamide]
Salmonella strain 14028s
  Growth in EG at concentration tested 1 μg/ml: +
  Growth in EG at concentration tested 2 μg/ml: +
  Growth in EG at concentration tested 4 μg/ml: +
  Growth in EG at concentration tested 8 μg/ml: +
  Growth in EG at concentration tested 16 μg/ml: +
  Growth in EG at concentration tested 32 μg/ml: +
DksA [1]
  In vitro transcription assay result, 0.1 μM: no induction
  In vitro transcription assay result, 1 μM: no induction
  IVT: 0.1 µM
Compound solubility
  Compound Solubility, 1 μM: water
  Compound Solubility, 10 μM: water
  Compound Solubility, 100 μM: water
  Compound Solubility, 1 mM: water
  Compound Solubility, 10 mM: water
  Compound Solubility, 16 mg/ml: DMSO

## C[C@H](NC(=O)c1nc[nH]n1)c1ccccc1 [Compound 18, (S)-N-(1-phenylethyl)-1H-1,2,4-triazole-3-carboxamide]
Salmonella strain 14028s
  Growth in EG at concentration tested 1 μg/ml: +
  Growth in EG at concentration tested 2 μg/ml: +
  Growth in EG at concentration tested 4 μg/ml: +
  Growth in EG at concentration tested 8 μg/ml: +
  Growth in EG at concentration tested 16 μg/ml: +
  Growth in EG at concentration tested 32 μg/ml: +
DksA [1]
  In vitro transcription assay result, 0.1 μM: no induction
  In vitro transcription assay result, 1 μM: no induction
  IVT: 0.1 µM
Compound solubility
  Compound Solubility, 1 μM: water
  Compound Solubility, 10 μM: water
  Compound Solubility, 100 μM: water
  Compound Solubility, 1 mM: water
  Compound Solubility, 10 mM: water
  Compound Solubility, 16 mg/ml: DMSO

## O=C(NCCc1c[nH]c2ccccc12)c1nc[nH]n1 [Compound 19, N-(2-(1H-indol-3-yl)ethyl)-1H-1,2,4-triazole-3-carboxamide]
Salmonella strain 14028s
  Growth in EG at concentration tested 1 μg/ml: +
  Growth in EG at concentration tested 2 μg/ml: +
  Growth in EG at concentration tested 4 μg/ml: +
  Growth in EG at concentration tested 8 μg/ml: +
  MIC: 16 µg/mL (≈ 62.7 µM)
DksA [1]
  In vitro transcription assay result, 0.1 μM: no induction
  In vitro transcription assay result, 1 μM: no induction
  IVT: 0.1 µM
DksA [2]
  IC50: 75 nM
Compound solubility
  Compound Solubility, 1 μM: water
  Compound Solubility, 10 μM: water
  Compound Solubility, 100 μM: water
  Compound Solubility, 1 mM: water
  Compound Solubility, 10 mM: water
  Compound Solubility, 16 mg/ml: DMSO

## O=C(NCCc1ccccc1)c1nc[nH]n1 [Compound 20, N-phenethyl-1H-1,2,4-triazole-3-carboxamide]
Salmonella strain 14028s
  Growth in EG at concentration tested 1 μg/ml: +
  Growth in EG at concentration tested 2 μg/ml: +
  Growth in EG at concentration tested 4 μg/ml: +
  MIC: 8 µg/mL (≈ 37 µM)
DksA [1]
  In vitro transcription assay result, 0.1 μM: no induction
  In vitro transcription assay result, 1 μM: no induction
  IVT: 0.1 µM
DksA [2]
  IC50: 90 nM
Compound solubility
  Compound Solubility, 1 μM: water
  Compound Solubility, 10 μM: water
  Compound Solubility, 100 μM: water
  Compound Solubility, 1 mM: water
  Compound Solubility, 10 mM: water
  Compound Solubility, 16 mg/ml: DMSO

## COc1ccc([C@@H](C)NC(=O)c2nc[nH]n2)cc1 [Compound 22, (R)-N-(1-(4-methoxyphenyl)ethyl)-1H-1,2,4-triazole-3-carboxamide]
Salmonella strain 14028s
  Growth in EG at concentration tested 1 μg/ml: +
  Growth in EG at concentration tested 2 μg/ml: +
  Growth in EG at concentration tested 4 μg/ml: +
  Growth in EG at concentration tested 8 μg/ml: +
  Growth in EG at concentration tested 16 μg/ml: +
  Growth in EG at concentration tested 32 μg/ml: +
DksA [1]
  In vitro transcription assay result, 0.1 μM: no induction
  In vitro transcription assay result, 1 μM: no induction
  IVT: 0.1 µM
Compound solubility
  Compound Solubility, 1 μM: water
  Compound Solubility, 10 μM: water
  Compound Solubility, 100 μM: water
  Compound Solubility, 1 mM: water
  Compound Solubility, 10 mM: water
  Compound Solubility, 16 mg/ml: DMSO

Reference: patent US12043601B2, “N-substituted-1H-1,2,4-triazole-3-carboxamides, analogues thereof, and methods of treatment using same” (THE REGENTS OF THE UNIVERSITY OF COLORADO, priority 2018, dated 2024)
